Assay results: ChEMBL document CHEMBL1131710, “N-substituted-3-arylpyrrolidines: potent and selective ligands at serotonin 1A receptor” (Bioorg Med Chem Lett, 1999)

What was measured:
Format in all cases: tissue-based
[1] = target: T1, Adrenergic receptor alpha-2 (Rattus norvegicus, UniProt P22086+P19328+P22909); assay: In vitro binding affinity against Alpha-2 adrenergic receptor of rat cerebral cortex using [3H]RX-821002
T1 sequence (P22086 whole entry): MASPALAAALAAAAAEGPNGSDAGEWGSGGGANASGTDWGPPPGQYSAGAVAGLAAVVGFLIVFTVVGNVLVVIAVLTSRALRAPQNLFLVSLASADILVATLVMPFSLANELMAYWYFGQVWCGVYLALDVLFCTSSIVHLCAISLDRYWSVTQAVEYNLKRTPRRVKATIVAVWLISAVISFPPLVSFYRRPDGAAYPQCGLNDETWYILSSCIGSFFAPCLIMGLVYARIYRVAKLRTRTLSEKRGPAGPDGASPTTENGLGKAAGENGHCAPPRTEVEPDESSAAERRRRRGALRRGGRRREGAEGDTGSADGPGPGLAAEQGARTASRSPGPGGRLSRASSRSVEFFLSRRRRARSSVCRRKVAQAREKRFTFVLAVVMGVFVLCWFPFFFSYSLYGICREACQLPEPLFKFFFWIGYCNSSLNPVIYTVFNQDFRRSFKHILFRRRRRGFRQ
T1 sequence (P19328 whole entry): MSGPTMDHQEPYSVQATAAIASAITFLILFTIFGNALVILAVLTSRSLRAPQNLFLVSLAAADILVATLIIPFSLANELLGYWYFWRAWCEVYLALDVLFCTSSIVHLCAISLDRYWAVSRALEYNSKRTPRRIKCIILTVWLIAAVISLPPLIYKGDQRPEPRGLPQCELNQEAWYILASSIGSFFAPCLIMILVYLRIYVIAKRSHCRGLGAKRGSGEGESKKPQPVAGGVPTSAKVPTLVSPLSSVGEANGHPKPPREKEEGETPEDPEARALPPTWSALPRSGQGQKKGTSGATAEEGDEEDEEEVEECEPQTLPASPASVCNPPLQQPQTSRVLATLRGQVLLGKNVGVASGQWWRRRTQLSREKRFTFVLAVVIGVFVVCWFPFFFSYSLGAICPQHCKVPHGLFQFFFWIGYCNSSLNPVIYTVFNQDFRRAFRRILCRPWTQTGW
T1 sequence (P22909 whole entry): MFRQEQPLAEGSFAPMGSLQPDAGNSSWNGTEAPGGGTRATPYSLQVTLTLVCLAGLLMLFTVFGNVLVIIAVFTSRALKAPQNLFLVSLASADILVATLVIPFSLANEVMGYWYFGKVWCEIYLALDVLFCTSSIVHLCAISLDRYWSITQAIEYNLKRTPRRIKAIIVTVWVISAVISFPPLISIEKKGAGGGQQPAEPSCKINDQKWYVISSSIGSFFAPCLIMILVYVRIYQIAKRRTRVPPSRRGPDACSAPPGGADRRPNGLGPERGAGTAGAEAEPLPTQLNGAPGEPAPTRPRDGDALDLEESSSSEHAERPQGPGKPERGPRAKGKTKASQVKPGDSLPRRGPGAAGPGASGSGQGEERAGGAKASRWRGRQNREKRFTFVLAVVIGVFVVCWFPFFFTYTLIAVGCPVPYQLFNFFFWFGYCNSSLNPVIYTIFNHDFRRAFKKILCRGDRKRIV

D(1A) dopamine receptor = D(1A) dopamine receptor (Rattus norvegicus, UniProt P18901); assay: In vitro binding affinity against Dopamine receptor D1 of rat striatum using [3H]SCH-23390
Sequence of D(1A) dopamine receptor (P18901 whole entry): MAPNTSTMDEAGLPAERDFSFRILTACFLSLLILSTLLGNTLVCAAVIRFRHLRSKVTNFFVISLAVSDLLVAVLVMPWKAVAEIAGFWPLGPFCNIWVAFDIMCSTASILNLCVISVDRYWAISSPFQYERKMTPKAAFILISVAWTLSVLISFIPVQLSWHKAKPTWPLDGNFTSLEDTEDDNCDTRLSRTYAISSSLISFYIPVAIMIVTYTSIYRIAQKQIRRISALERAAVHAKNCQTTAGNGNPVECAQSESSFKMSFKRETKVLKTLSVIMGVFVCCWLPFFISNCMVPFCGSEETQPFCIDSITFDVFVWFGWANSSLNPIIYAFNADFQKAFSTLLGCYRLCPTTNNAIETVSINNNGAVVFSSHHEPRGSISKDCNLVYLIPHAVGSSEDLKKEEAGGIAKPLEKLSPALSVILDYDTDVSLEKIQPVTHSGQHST

D(2) dopamine receptor = D(2) dopamine receptor (Rattus norvegicus, UniProt P61169); assay: In vitro binding affinity against Dopamine receptor D2 of rat striatum using [3H]raclopride
Sequence of D(2) dopamine receptor (P61169 whole entry): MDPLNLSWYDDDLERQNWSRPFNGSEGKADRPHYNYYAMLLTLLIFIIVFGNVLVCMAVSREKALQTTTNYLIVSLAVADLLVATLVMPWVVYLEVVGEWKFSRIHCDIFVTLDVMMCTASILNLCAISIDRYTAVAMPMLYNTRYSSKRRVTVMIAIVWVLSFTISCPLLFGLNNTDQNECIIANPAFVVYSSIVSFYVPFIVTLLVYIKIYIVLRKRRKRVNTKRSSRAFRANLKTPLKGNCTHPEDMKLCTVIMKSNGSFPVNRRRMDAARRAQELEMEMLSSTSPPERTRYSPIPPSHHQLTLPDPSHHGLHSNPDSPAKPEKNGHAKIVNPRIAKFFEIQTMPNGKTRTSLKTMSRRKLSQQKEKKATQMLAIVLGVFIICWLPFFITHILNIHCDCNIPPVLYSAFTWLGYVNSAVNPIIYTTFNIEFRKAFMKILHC

[2] = target: 5-hydroxytryptamine receptor 2A (Rattus norvegicus, UniProt P14842); assay: In vitro binding affinity against 5-HT2A receptor of rat cerebral cortex using [3H]ketanserin
Sequence of 5-hydroxytryptamine receptor 2A (P14842 whole entry): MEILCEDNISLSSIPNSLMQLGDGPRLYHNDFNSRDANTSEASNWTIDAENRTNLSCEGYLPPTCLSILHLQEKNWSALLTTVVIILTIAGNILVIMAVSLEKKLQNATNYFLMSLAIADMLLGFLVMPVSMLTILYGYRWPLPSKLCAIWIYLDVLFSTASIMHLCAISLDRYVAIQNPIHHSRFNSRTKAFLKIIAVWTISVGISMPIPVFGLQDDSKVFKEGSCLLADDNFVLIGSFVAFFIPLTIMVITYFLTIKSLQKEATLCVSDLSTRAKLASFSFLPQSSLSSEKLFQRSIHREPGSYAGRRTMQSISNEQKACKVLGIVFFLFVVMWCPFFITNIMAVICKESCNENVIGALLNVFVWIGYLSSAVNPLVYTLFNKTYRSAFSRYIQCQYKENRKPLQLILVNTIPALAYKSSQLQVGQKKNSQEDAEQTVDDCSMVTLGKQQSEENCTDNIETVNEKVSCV

[3] = target: T2, 5-hydroxytryptamine receptor 1A (Rattus norvegicus, UniProt P19327); assay: In vitro binding affinity against 5-HT1A receptor of rat hippocampus using [3H]8-OH-DPAT
T2 sequence (P19327 whole entry): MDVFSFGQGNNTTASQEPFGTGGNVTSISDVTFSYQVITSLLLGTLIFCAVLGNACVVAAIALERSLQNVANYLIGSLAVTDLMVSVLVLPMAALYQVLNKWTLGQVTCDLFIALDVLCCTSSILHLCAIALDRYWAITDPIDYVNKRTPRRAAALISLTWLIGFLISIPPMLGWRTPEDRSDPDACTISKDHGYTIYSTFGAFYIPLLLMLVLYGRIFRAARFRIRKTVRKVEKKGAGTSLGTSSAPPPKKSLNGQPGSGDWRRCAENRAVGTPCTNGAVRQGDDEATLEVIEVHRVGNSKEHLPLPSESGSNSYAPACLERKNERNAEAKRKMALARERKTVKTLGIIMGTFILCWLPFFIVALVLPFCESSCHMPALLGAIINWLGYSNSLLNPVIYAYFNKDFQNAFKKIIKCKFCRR

Row | Compound | Ki [1] | Ki (D(1A) dopamine receptor) | Ki (D(2) dopamine receptor) | Ki [2] | Ki [3]
1 | O=C1c2ccccc2S(=O)(=O)N1CCCCN1CCC(c2ccc(F)cc2)C1 (stereo not given) | 334 nM | 6670 nM | 263 nM | > 367 nM | 4.2 nM
2 | O=C(c1cccc(CN2CCC(c3ccc(Cl)cc3)C2)c1)N1CCCCC1 (stereo not given) | 44 nM | 37600 nM | 334 nM | 46 nM | 15.3 nM
3 | O=C1c2ccccc2S(=O)(=O)N1CCCCN1CCC(c2ccc(Cl)cc2)C1 (stereo not given) | 56 nM | 1570 nM | 327 nM | 232 nM | 2.6 nM
4 | O=C1c2ccccc2CN1CCCCN1CCC(c2ccccc2)C1 (stereo not given) | 11 nM | 1950 nM | 77 nM | 46 nM | 11.5 nM
5 | O=C1c2ccccc2CN1CCCCN1CCC(c2ccc(Cl)cc2)C1 (stereo not given) | 12 nM | 1620 nM | 185 nM | 184 nM | 30.4 nM
6 | O=C(c1cccc(CN2CCC(c3ccccc3)C2)c1)N1CCCCC1 (stereo not given) | 24 nM | 88100 nM | 783 nM | 320 nM | 30.6 nM
7 | O=C1c2ccccc2S(=O)(=O)N1CCCCN1CCC(c2ccccc2)C1 (stereo not given) | 16 nM | 12500 nM | 195 nM | 34 nM | 2.7 nM
